# Assay results: US20150105252A1, “SUBSTITUTED PYRAZOLES AS HERBICIDES” (E I DU PONT DE NEMOURS AND COMPANY, priority 2013, published 2015)
# What was measured:
# common waterhemp = assay: Test F preemergence; format: in vivo, Amaranthus rudis
# Summary of the method: (§1)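 Percent-control style visual scores, from 0 (no effect) to 100 (complete control), were given relative to controls. Treatment timing: preemergence on silt loam plantings, or postemergence at 1- to 4-leaf stage. Evaluation came 14 to 21 days after spraying, greenhouse conditions.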
# yellow nutsedge = assay: Test F preemergence; format: in vivo, Cyperus esculentus
# Summary of the method: as §1
# field poppy = assay: Test D postemergence; format: in vivo, Papaver rhoeas; details: scale 0 to 100
# Summary of the method: (§2)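 Seeds are planted in silt loam and treated preemergence, while parallel plantings in a peat moss/vermiculite medium with starter nutrients receive postemergence sprays at the 1- to 4-leaf stage. All formulations use a non-phytotoxic solvent mixture with surfactant. Plants are kept in a controlled growth environment and rated visually after 14–21 days.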
# chickweed = assay: Test D preemergence; format: in vivo, Stellaria media; details: scale 0 to 100
# Summary of the method: as §2
# field bindweed = assay: Test F preemergence; format: in vivo, Convolvulus arvensis
# Summary of the method: as §1
# deadnettle = assay: Test D postemergence; format: in vivo, Lamium amplexicaule; details: scale 0 to 100
# Summary of the method: as §2
# green foxtail = assay: Test F preemergence; format: in vivo, Setaria viridis
# Summary of the method: as §1
# giant foxtail = assay: Test F preemergence; format: in vivo, Setaria faberii
# Summary of the method: as §1
# Surinam grass = assay: Test F preemergence; format: in vivo, Brachiaria decumbens
# Summary of the method: as §1
# kochia = assay: Test D postemergence; format: in vivo, Kochia scoparia; details: scale 0 to 100
# Summary of the method: as §2
# bluegrass = assay: Test D postemergence; format: in vivo, Poa annua; details: scale 0 to 100
# Summary of the method: as §2
# windgrass = assay: Test D preemergence; format: in vivo, Apera spica-venti; details: scale 0 to 100
# Summary of the method: as §2
# wheat, spring = assay: Test D preemergence; format: in vivo, Triticum aestivum; details: scale 0 to 100
# Summary of the method: as §2
# wheat, winter = assay: Test D preemergence; format: in vivo, Triticum aestivum; details: scale 0 to 100
# Summary of the method: as §2
# [1] = Preemergence, 16 g ai/ha, scale 0 to 100
# [2] = Preemergence, 62 g ai/ha, scale 0 to 100
# [3] = Preemergence, 125 g ai/ha, scale 0 to 100
# [4] = preemergence, 8 g ai/ha, scale 0 to 100, 100 is complete control
structure (smiles),measurement,setting,value
CCOc1cc(C(=O)NC(C)C)nn1Cc1ccnc(C(F)(F)F)c1 [Compound 188],"Plant response rating, Common Waterhemp",common waterhemp; [1],100
same,"Plant response rating, Common Waterhemp",common waterhemp; [2],100
same,"Plant response rating, Common Waterhemp",common waterhemp; [3],100
same,"Plant response rating, Common Waterhemp",common waterhemp; [4],85
same,"Plant response rating, Yellow Nutsedge",yellow nutsedge; [2],15
same,"Plant response rating, Yellow Nutsedge",yellow nutsedge; [3],70
same,"Plant response rating, Yellow Nutsedge",yellow nutsedge; [4],0
same,Field Poppy plant response rating,"field poppy; Postemergence, 31 g ai/ha",60
same,Field Poppy plant response rating,"field poppy; Postemergence, 125 g ai/ha",75
same,Field Poppy plant response rating,"field poppy; Postemergence, 250 g ai/ha",95
same,Field Poppy plant response rating,"field poppy; postemergence, 62 g ai/ha",60
same,"Plant response rating, Chickweed",chickweed; 31 g ai/ha,100
same,"Plant response rating, Chickweed",chickweed; 62 g ai/ha,100
same,"Plant response rating, Chickweed",chickweed; 125 g ai/ha,100
same,"Plant response rating, Chickweed",chickweed; 250 g ai/ha,100
same,"Plant response rating, Field Bindweed",field bindweed; [1],30
same,"Plant response rating, Field Bindweed",field bindweed; [2],40
same,"Plant response rating, Field Bindweed",field bindweed; [3],100
same,"Plant response rating, Field Bindweed",field bindweed; [4],35
same,Deadnettle plant response rating,"deadnettle; Postemergence, 31 g ai/ha",35
same,Deadnettle plant response rating,"deadnettle; Postemergence, 125 g ai/ha",45
same,Deadnettle plant response rating,"deadnettle; Postemergence, 250 g ai/ha",55
same,Deadnettle plant response rating,"deadnettle; postemergence, 62 g ai/ha",35
same,"Plant response rating, Green Foxtail",green foxtail; [2],100
same,"Plant response rating, Green Foxtail",green foxtail; [3],100
same,"Plant response rating, Green Foxtail",green foxtail; [4],5
same,"Plant response rating, Giant Foxtail",giant foxtail; [2],100
same,"Plant response rating, Giant Foxtail",giant foxtail; [3],100
same,"Plant response rating, Giant Foxtail",giant foxtail; [4],5
same,"Plant response rating, Surinam Grass",Surinam grass; [2],100
same,"Plant response rating, Surinam Grass",Surinam grass; [3],100
same,"Plant response rating, Surinam Grass",Surinam grass; [4],20
same,Kochia plant response rating,"kochia; Postemergence, 31 g ai/ha",75
same,Kochia plant response rating,"kochia; Postemergence, 125 g ai/ha",80
same,Kochia plant response rating,"kochia; Postemergence, 250 g ai/ha",85
same,Kochia plant response rating,"kochia; postemergence, 62 g ai/ha",75
same,Bluegrass plant response rating,"bluegrass; Postemergence, 31 g ai/ha",20
same,Bluegrass plant response rating,"bluegrass; Postemergence, 125 g ai/ha",30
same,Bluegrass plant response rating,"bluegrass; Postemergence, 250 g ai/ha",35
same,Bluegrass plant response rating,"bluegrass; postemergence, 62 g ai/ha",20
same,"Plant response rating, Windgrass",windgrass; 62 g ai/ha,100
same,"Plant response rating, Windgrass",windgrass; 125 g ai/ha,100
same,"Plant response rating, Windgrass",windgrass; 250 g ai/ha,100
same,"Plant response rating, Wheat, Spring","wheat, spring; 62 g ai/ha",70
same,"Plant response rating, Wheat, Spring","wheat, spring; 125 g ai/ha",100
same,"Plant response rating, Wheat, Spring","wheat, spring; 250 g ai/ha",100
same,"Plant response rating, Wheat, Winter","wheat, winter; 62 g ai/ha",65
same,"Plant response rating, Wheat, Winter","wheat, winter; 125 g ai/ha",95
same,"Plant response rating, Wheat, Winter","wheat, winter; 250 g ai/ha",100
